What was measured:
Solid stability test = format: physicochemical
Protocol: […] The samples placed at the conditions of high temperature (60° C.) and high humidity (92.5% humidity, room temperature) were taken to test XRPD and purity on the 5th day and 10 days. Samples placed at high temperature and high humidity (40° C./75% humidity, 60° C./75% humidity) were taken to test XRPD and purity on the 10th day, 1 month, 2 months, and 3 months. The samples placed under light irradiation conditions were taken for testing when a total illuminance reached 1.2×10^6 Lux·hr. The test results are compared with the beginning test results of 0 day.

[1] = Hygroscopicity study by dynamic vapor sorption (DVS); format: physicochemical; conditions: 25° C. and 80% RH
Protocol: Test conditions: a sample (10-15 mg) is placed in DVS sample tray for testing.
Balance: dm/dt=0.01%/min (shortest: 10 min, longest: 180 min)
Drying: drying for 120 min at 0% RH
RH (%) test gradient: 10%
RH (%) test gradient range: 0%-90%-0%
The hygroscopicity property is evaluated and classified as follows: […]

[2] = 40° C., relative humidity 75%, open, 1M
[3] = 40° C., relative humidity 75%, open, 2M
[4] = 40° C., relative humidity 75%, open, 3M
[5] = 40° C., relative humidity 75%, open, 10 days
[6] = 60° C., relative humidity 75%, open, 1M
[7] = 60° C., relative humidity 75%, open, 2M
[8] = 60° C., relative humidity 75%, open, 3M
[9] = 60° C., relative humidity 75%, open, 10 days
[10] = High humidity (room temperature/relative humidity 92.5%, open), 5 days
[11] = High humidity (room temperature/relative humidity 92.5%, open), 10 days
[12] = High temperature (60° C., open), 5 days
[13] = High temperature (60° C., open), 10 days
[14] = Light irradiation (total illuminance of 1.2 × 10^6 Lux·hr/near ultraviolet 200 w·hr/m^2, open)

COc1ccc2c(c1OCc1ccccc1)C[C@@H](C(=O)O)N(C(=O)[C@@H](OC1CCCC1)c1ccccc1)C2 [crystalline form “B”]
Crystalline form (XRPD) (Solid stability test; 0 day): Crystalline form “B” | Purity (Solid stability test; 0 day): 99.89% | Crystalline form (XRPD) (Solid stability test; [2]): Crystalline form “B” | Purity (Solid stability test; [2]): 99.92% | Crystalline form (XRPD) (Solid stability test; [3]): Crystalline form “B” | Purity (Solid stability test; [3]): 99.87% | Crystalline form (XRPD) (Solid stability test; [4]): Crystalline form “B” | Purity (Solid stability test; [4]): 99.87% | Crystalline form (XRPD) (Solid stability test; [5]): Crystalline form “B” | Purity (Solid stability test; [5]): 99.93% | Crystalline form (XRPD) (Solid stability test; [6]): Crystalline form “B” | Purity (Solid stability test; [6]): 99.90% | Crystalline form (XRPD) (Solid stability test; [7]): Crystalline form “B” | Purity (Solid stability test; [7]): 99.78% | Crystalline form (XRPD) (Solid stability test; [8]): Crystalline form “B” | Purity (Solid stability test; [8]): 99.80% | Crystalline form (XRPD) (Solid stability test; [9]): Crystalline form “B” | Purity (Solid stability test; [9]): 99.92% | Crystalline form (XRPD) (Solid stability test; [10]): Crystalline form “B” | Purity (Solid stability test; [10]): 99.93% | Crystalline form (XRPD) (Solid stability test; [11]): Crystalline form “B” | Purity (Solid stability test; [11]): 99.92% | Crystalline form (XRPD) (Solid stability test; [12]): Crystalline form “B” | Purity (Solid stability test; [12]): 99.93% | Crystalline form (XRPD) (Solid stability test; [13]): Crystalline form “B” | Purity (Solid stability test; [13]): 99.93% | Crystalline form (XRPD) (Solid stability test; [14]): Crystalline form “B” | Purity (Solid stability test; [14]): 99.96% | Solid stability conclusion (Solid stability test; high temperature, high humidity, strong light and accelerated conditions): good crystal stability and good chemical stability | Classification of hygroscopicity [1]: almost no hygroscopicity | ΔW, weight gain caused by hygroscopicity [1]: 0.05327%

— patent publication US11286239B2, “Angiotensin II receptor 2 antagonist salt form and crystalline form, and preparation method therefor” (SHANDONG DANHONG PHARMACEUTICAL CO., LTD., priority 2018, dated 2022)
